# Data reported in patent publication US9783537B2, “3-(4-ethylnylphenyl) pyridopyrimidinone compounds and process for preparation thereof useful as potential anticancer agents” (Council of Scientific & Industrial Research, priority 2013, dated 2017).
# Like-named read-outs stand apart in the source and are kept apart here.
# Columns and labels:
# HT-29 = experiment: SRB 48 h growth assay, Colon HT-29; format: cell-based, human; conditions: HT-29, Colon
# HS578T = experiment: SRB 48 h growth assay, Breast HS578T; format: cell-based, human; conditions: Homo sapiens, Hs-578T
# SNB-19 = experiment: SRB 48 h growth assay, CNS SNB-19; format: cell-based, human; conditions: Homo sapiens, SNB-19, CNS
# [1] = system: two prostate cancer cell line (PC-3, DU-145); experiment: in vitro anticancer activity, prostate panel; format: cell-based; conditions: Homo sapiens; two prostate cancer cell lines, exposure at least 48 h; read-out: GI50, range over panel
# 786-0 = experiment: SRB 48 h growth assay, Renal 786-0; format: cell-based, human; conditions: 786-0, Renal; for GI50: Homo sapiens
# CCRF-CEM = experiment: SRB 48 h growth assay, Leukemia CCRF-CEM; format: cell-based, human; conditions: Homo sapiens
# SK-MEL-28 = experiment: SRB 48 h growth assay, Melanoma SK-MEL-28; format: cell-based, human; conditions: SK-MEL-28, Melanoma; for GI50: Homo sapiens
# [2] = system: six breast cancer cell line (MCF-7, MDA-MB-231/ATCC, HS 578T, TD-47D, MDA-MB-468 and BT-549); experiment: in vitro anticancer activity, breast panel; format: cell-based; conditions: Homo sapiens; six breast cancer cell lines, exposure at least 48 h; read-out: GI50, range over panel
# OVCAR-8 = experiment: SRB 48 h growth assay, Ovarian OVCAR-8; format: cell-based, human; conditions: Homo sapiens, OVCAR-8, Ovarian
# HOP-62 = experiment: SRB 48 h growth assay, Non-small Cell Lung HOP-62; format: cell-based, human; conditions: HOP-62, Non-small Cell Lung; for GI50: Homo sapiens
# RXF393 = experiment: SRB 48 h growth assay, Renal RXF393; format: cell-based, human
# KM12 = experiment: SRB 48 h growth assay, Colon KM12; format: cell-based, human
# OVCAR-3 = experiment: SRB 48 h growth assay, Ovarian OVCAR-3; format: cell-based, human; conditions: OVCAR-3, Ovarian
# UACC-257 = experiment: SRB 48 h growth assay, Melanoma UACC-257; format: cell-based, human; conditions: UACC-257, Melanoma
# UO-31 = experiment: SRB 48 h growth assay, Renal UO-31; format: cell-based, human; conditions: UO-31, Renal
# NCI-H23 = experiment: SRB 48 h growth assay, Non-small Cell Lung NCI-H23; format: cell-based, human; conditions: for GI50: Homo sapiens
# HOP-92 = experiment: SRB 48 h growth assay, Non-small Cell Lung HOP-92; format: cell-based, human; conditions: HOP-92, Non-small Cell Lung
# HCT-116 = experiment: SRB 48 h growth assay, Colon HCT-116; format: cell-based, human; conditions: HCT-116, Colon
# HCC-2998 = experiment: SRB 48 h growth assay, Colon HCC-2998; format: cell-based, human; conditions: HCC-2998, Colon
# U251 = experiment: SRB 48 h growth assay, CNS U251; format: cell-based, human
# [3] = in vitro anticancer activity, non-small cell lung panel; format: cell-based; conditions: Homo sapiens; nine non-small cell lung cancer cell lines, exposure at least 48 h; read-out: GI50, range over panel
# SK-MEL-2 = experiment: SRB 48 h growth assay, Melanoma SK-MEL-2; format: cell-based, human; conditions: SK-MEL-2, Melanoma; for GI50: Homo sapiens
# NCI/ADR-RES = experiment: SRB 48 h growth assay, Ovarian NCI/ADR-RES; format: cell-based, human
# OVCAR-4 = experiment: SRB 48 h growth assay, Ovarian OVCAR-4; format: cell-based, human; conditions: OVCAR-4, Ovarian
# T-47D = experiment: SRB 48 h growth assay, Breast T-47D; format: cell-based, human; conditions: for GI50: Homo sapiens, T47D
# [4] = system: seven ovarian cancer cell lines (IGROV1, OVCAR-3, OVCAR-4, OVCAR-5, OVCAR-8, NCI/ADR-RES and SK-OV-3); experiment: in vitro anticancer activity, ovarian panel; format: cell-based; conditions: Homo sapiens, exposure at least 48 h, read-out: GI50, range over panel
# [5] = Homo sapiens, read-out: Growth Inhibition GI50
# [6] = Homo sapiens, read-out: Log10 GI50 (converted)
# [7] = Homo sapiens, read-out: Log10 LC50 (converted)
# [8] = read-out: Growth Inhibition GI50
# [9] = read-out: Log10 GI50 (converted)
# [10] = read-out: Log10 LC50 (converted)
smiles,measurement,setting,value
"C#Cc1ccc(-n2c(/C=C/c3ccc4ccccc4n3)nc3ncccc3c2=O)cc1 [4t, (E)-3-(4-Ethynylphenyl)-2-(2-(quinolin-2-yl)vinyl)pyrido[2,3-d]pyrimidin-4(3H)-one]",Log10 TGI50,HT-29,−5.96
same,GI50,HT-29; [5],360 nM
same,GI50,HT-29; [6],372 nM
same,CC50,HT-29; [7],4270 nM
same,GI50,HS578T; [8],240 nM
same,GI50,HS578T; [9],240 nM
same,CC50,HS578T; [10],> 100000 nM
same,GI50,SNB-19; [8],720 nM
same,GI50,SNB-19; [9],724 nM
same,CC50,SNB-19; [10],> 100000 nM
same,GI50,[1],3870 to 4100 nM
same,Log10 TGI50,786-0,−5.88
same,GI50,786-0; [8],380 nM
same,GI50,786-0; [9],389 nM
same,CC50,"CCRF-CEM; CCKF-CEM, read-out: Log10 LC50 (converted)",> 100000 nM
same,GI50,CCRF-CEM; [8],260 nM
same,GI50,CCRF-CEM; [9],263 nM
same,GI50,SK-MEL-28; [8],1050 nM
same,GI50,SK-MEL-28; [9],1050 nM
same,Log10 TGI50,SK-MEL-28,−5.51
same,GI50,[2],2310 to 11400 nM
same,GI50,OVCAR-8; [8],340 nM
same,GI50,OVCAR-8; [9],347 nM
same,CC50,OVCAR-8; [10],> 100000 nM
same,Log10 TGI50,HOP-62,−5.72
same,GI50,HOP-62; [8],460 nM
same,GI50,HOP-62; [9],468 nM
same,Log10 TGI50,RXF393,−6.07
same,GI50,"RXF393; Homo sapiens, RXF 393, read-out: Growth Inhibition GI50",250 nM
same,GI50,"RXF393; Homo sapiens, RXF 393, read-out: Log10 GI50 (converted)",257 nM
same,CC50,"RXF393; Homo sapiens, RXF 393, read-out: Log10 LC50 (converted)",5010 nM
same,Log10 TGI50,KM12,−5.97
same,GI50,KM12; [5],320 nM
same,GI50,KM12; [6],324 nM
same,CC50,KM12; [7],3470 nM
same,GI50,OVCAR-3; [5],300 nM
same,GI50,OVCAR-3; [6],302 nM
same,CC50,OVCAR-3; [7],4790 nM
same,Log10 TGI50,OVCAR-3,−6.06
same,GI50,UACC-257; [5],430 nM
same,GI50,UACC-257; [6],437 nM
same,CC50,UACC-257; [7],8710 nM
same,Log10 TGI50,UACC-257,−5.66
same,GI50,UO-31; [5],310 nM
same,GI50,UO-31; [6],316 nM
same,CC50,UO-31; [7],6920 nM
same,Log10 TGI50,UO-31,−5.78
same,Log10 TGI50,NCI-H23,−5.62
same,GI50,NCI-H23; [8],700 nM
same,GI50,NCI-H23; [9],708 nM
same,Log10 TGI50,HOP-92,−5.01
same,GI50,HOP-92; [5],180 nM
same,GI50,HOP-92; [6],186 nM
same,CC50,HOP-92; [7],> 100000 nM
same,Log10 TGI50,HCT-116,−5.92
same,GI50,HCT-116; [5],340 nM
same,GI50,HCT-116; [6],347 nM
same,CC50,HCT-116; [7],3890 nM
same,Log10 TGI50,HCC-2998,−5.92
same,GI50,HCC-2998; [5],340 nM
same,GI50,HCC-2998; [6],347 nM
same,CC50,HCC-2998; [7],6310 nM
same,Log10 TGI50,U251,−5.84
same,GI50,"U251; Homo sapiens, U-251, read-out: Growth Inhibition GI50",340 nM
same,GI50,"U251; Homo sapiens, U-251, read-out: Log10 GI50 (converted)",339 nM
same,CC50,"U251; Homo sapiens, U-251, read-out: Log10 LC50 (converted)",8130 nM
same,GI50,[3],1800 to 5660 nM
same,GI50,SK-MEL-2; [8],410 nM
same,GI50,SK-MEL-2; [9],417 nM
same,Log10 TGI50,SK-MEL-2,−5.80
same,Log10 TGI50,NCI/ADR-RES,−5.75
same,GI50,NCI/ADR-RES; [5],380 nM
same,GI50,NCI/ADR-RES; [6],380 nM
same,CC50,NCI/ADR-RES; [7],> 100000 nM
same,GI50,OVCAR-4; [5],330 nM
same,GI50,OVCAR-4; [6],339 nM
same,CC50,OVCAR-4; [7],> 100000 nM
same,Log10 TGI50,OVCAR-4,−5.46
same,Log10 TGI50,T-47D,−6.05
same,GI50,T-47D; [8],290 nM
same,GI50,T-47D; [9],295 nM
same,GI50,[4],2410 to 32300 nM
